Active and inactive are the calls of the source. No cut-off for these calls is given here. Residues, ends and D or L forms follow the SMILES beside them.
Assays:
[1] = species on record: Mus musculus; experiment: Tested for maximal effect induced by agonist; assay type: functional
[2] = species on record: Mus musculus; experiment: Tested for apparent affinity on electrically stimulated mouse vas deferens; assay type: functional, organism-based
[3] = species on record: Mus musculus; experiment: Tested for antagonistic properties by using NC(1-13)-NH2; In active at 10 uM; assay type: functional, organism-based
[4] = species on record: Mus musculus; experiment: Tested for maximal effect induced by agonist at 10 uM; Inactive; assay type: functional, organism-based
[5] = species on record: Mus musculus; experiment: Tested for apparent affinity on electrically stimulated mouse vas deferens at 10 uM; Inactive; assay type: functional, organism-based
[6] = species on record: Mus musculus; experiment: Tested for maximal effect induced by agonist at 10 uM; Slight effect was detected; assay type: functional, organism-based
[7] = species on record: Mus musculus; experiment: Tested for apparent affinity on electrically stimulated mouse vas deferens at 10 uM; Slight effect was detected; assay type: functional, organism-based
[8] = species on record: Mus musculus; experiment: Tested for antagonistic properties by using NC(1-13)-NH2 as agonist; Inactive at 10 uM; assay type: functional, organism-based
[9] = species on record: Mus musculus; experiment: Tested for maximal effect induced by agonist at 10 uM; In active; assay type: functional, organism-based
[10] = species on record: Mus musculus; experiment: Tested for apparent affinity on electrically stimulated mouse vas deferens at 10 uM; In active; assay type: functional, organism-based

EC50 [2] [nM] | Log EC50 [5] | Compound | Emax [1] [%] | Activity [3] | Emax [4] | further results
17.8 | – | C[C@H](NC(=O)CNC(=O)[C@@H](NC(=O)[C@H](Cc1ccccc1)NC(=O)CNC(=O)CNC(=O)[C@@H](N)Cc1ccccc1)[C@@H](C)O)C(=O)N[C@@H](CCCNC(=N)N)C(=O)N[C@@H](CCCCN)C(=O)N[C@@H](CO)C(=O)N[C@@H](C)C(=O)N[C@@H](CCCNC(=N)N)C(=O)N[C@@H](CCCCN)C(N)=O | -84 | – | – | –
2240 | – | C[C@H](NC(=O)CNC(=O)[C@@H](NC(=O)[C@H](Cc1ccccc1)NC(=O)CNC(=O)CNC(=O)[C@@H](N)Cc1ccccc1)[C@@H](C)O)C(=O)N[C@@H](CCCN=C(N)N)C(=O)N[C@@H](CCCCN)C(=O)N[C@@H](CO)C(=O)N[C@@H](C)C(=O)N[C@@H](CCCN=C(N)N)C(=O)N[C@@H](CCCCN)C(=O)O | -73 | – | – | –
1510 | – | CC(=O)N[C@@H](Cc1ccccc1)C(=O)NCC(=O)NCC(=O)N[C@@H](Cc1ccccc1)C(=O)N[C@H](C(=O)NCC(=O)N[C@@H](C)C(=O)N[C@@H](CCCN=C(N)N)C(=O)N[C@@H](CCCCN)C(=O)N[C@@H](CO)C(=O)N[C@@H](C)C(=O)N[C@@H](CCCN=C(N)N)C(=O)N[C@@H](CCCCN)C(N)=O)[C@@H](C)O | -79 | – | – | –
– | inactive | C=CCN(CC=C)[C@@H](Cc1ccccc1)C(=O)NCC(=O)NCC(=O)N[C@@H](Cc1ccccc1)C(=O)N[C@H](C(=O)NCC(=O)N[C@@H](C)C(=O)N[C@@H](CCCN=C(N)N)C(=O)N[C@@H](CCCCN)C(=O)N[C@@H](CO)C(=O)N[C@@H](C)C(=O)N[C@@H](CCCN=C(N)N)C(=O)N[C@@H](CCCCN)C(N)=O)[C@@H](C)O | – | inactive | inactive | –
– | – | C[C@H](NC(=O)CNC(=O)[C@@H](NC(=O)[C@@H](Cc1ccccc1)NC(=O)CNC(=O)CNC(=O)[C@@H](N)Cc1ccccc1)[C@@H](C)O)C(=O)N[C@@H](CCCN=C(N)N)C(=O)N[C@@H](CCCCN)C(=O)N[C@@H](CO)C(=O)N[C@@H](C)C(=O)N[C@@H](CCCN=C(N)N)C(=O)N[C@@H](CCCCN)C(N)=O | – | inactive | – | Emax [6]: crc incom; Log EC50 [7]: crc incom
– | inactive | C[C@H](NC(=O)CNC(=O)[C@@H](NC(=O)[C@H](Cc1ccccc1)NC(=O)CNC(=O)CNC(=O)[C@@H](N)Cc1ccccc1)[C@@H](C)O)C(=O)N[C@@H](CCCN=C(N)N)C(=O)N[C@@H](CCCCN)C(=O)N[C@@H](CO)C(=O)N[C@@H](C)C(=O)N[C@@H](CCCN=C(N)N)C(=O)O | – | inactive | inactive | –
– | – | C[C@H](NC(=O)CNC(=O)[C@@H](NC(=O)[C@H](Cc1ccccc1)NC(=O)CNC(=O)CNC(=O)[C@H](N)Cc1ccccc1)[C@@H](C)O)C(=O)N[C@@H](CCCN=C(N)N)C(=O)N[C@@H](CCCCN)C(=O)N[C@@H](CO)C(=O)N[C@@H](C)C(=O)N[C@@H](CCCN=C(N)N)C(=O)N[C@@H](CCCCN)C(N)=O | – | inactive | – | Emax [6]: crc incom; Log EC50 [7]: crc incom
– | inactive | NC(=O)[C@H](Cc1ccccc1)NC(=O)CNC(=O)CNC(=O)[C@@H](N)Cc1ccccc1 (H-FGGF-NH2) | – | – | inactive | Activity [8]: inactive
– | inactive | H-FAAFTGARKSARK-NH2 | – | inactive | – | Emax [9]: inactive
– | – | H-FGFTGARKSARK-NH2 | – | inactive | – | Emax [9]: inactive; Log EC50 [10]: inactive
– | inactive | H-FGGFT-NH2 | – | inactive | inactive | –
– | – | H-FGGFTGAAASARK-NH2 | – | inactive | – | Emax [6]: crc incom; Log EC50 [7]: crc incom
– | inactive | H-FGGFTGARK-NH2 | – | inactive | inactive | –
– | – | H-FGGFTGARKSA-NH2 | – | inactive | – | Emax [6]: crc incom; Log EC50 [7]: crc incom
871 | – | H-FGGFTGARKSAR-NH2 | -79 | – | – | –
– | inactive | H-FGGLTGARKSARK-NH2 | – | inactive | inactive | –
28.2 | – | H-LGGFTGARKSARK-NH2 | -80 | – | – | –

Compound | EC50 [2] [nM] | Log EC50 [5] | Emax [1] [%] | Activity [3] | Emax [4] | further results
CC(C)C[C@H](NC(=O)[C@H](CCCCN)NC(=O)[C@H](CCCNC(=N)N)NC(=O)[C@H](C)NC(=O)[C@H](CO)NC(=O)[C@H](CCCCN)NC(=O)[C@H](CCCNC(=N)N)NC(=O)[C@H](C)NC(=O)CNC(=O)[C@@H](NC(=O)[C@H](Cc1ccccc1)NC(=O)CNC(=O)CNC(=O)[C@@H](N)Cc1ccccc1)[C@@H](C)O)C(=O)N[C@@H](C)C(=O)N[C@@H](CC(N)=O)C(=O)N[C@@H](CCC(N)=O)C(=O)O [NOCICEPTIN] | 14.5 | – | -83 | – | – | –

— ChEMBL document CHEMBL1130384, “Address and message sequences for the nociceptin receptor: a structure-activity study of nociceptin-(1-13)-peptide amide” (J Med Chem, 1997)
